# Assay results from US20190127366A1 (LifeSci Pharmaceuticals, Inc., priority 2015, published 2019).
# Like-named read-outs stand apart in the source and are kept apart here.
# Target: T1, human complement factor D (Homo sapiens, UniProt P00746)
# T1 construct: purchased R&D Systems 1824-SE
# Experiment: In vitro enzyme inhibition (Z-Lys-SBzl/DTNB absorbance assay)
# Assay type: biochemical
# Experimental: The ability of the compounds disclosed herein to inhibit human complement factor D inhibitory activity was quantified according to the 12-step protocol provided below. • 1. Prepare assay buffer: 50 mM Tris/HCl, pH 7.5, 1 M NaCl. • 2. Dilute 10 mM Complement Factor D inhibitor Nafamostat Mesilate (Selleckchem, Catalog #S1386) solution from 10000 μM to 9.77 μM in 100% DMSO, 8 concentrations. Then dilute the serial concentrations of Nafamostat Mesilate 20-fold in assay buffer. • 3. Add 10 μl diluted Nafamostat Mesilate duplicated into each of the inhibitor control well of a 96-well plate (Corning, Catalog #3599). Final concentrations were 50 μM, 25 μM, 12.5 μM, 6.25 μM, 3.125 μM, 0.781 μM, 0.195 μM and 0.049 μM. 0.5% DMSO was in each well finally. • 4. Dilute 20 mM test compounds from 10000 μM to […] in 100% DMSO, 6-fold dilution, 8 concentrations. Then dilute the serial concentrations of test compounds 20-fold in assay buffer. • 5. Add 10 μl diluted test compounds duplicated into the 96-well plate. Final concentrations were 50 μM, 8.33 μM, 1.39 μM, 0.23 μM, 0.0386 μM, 0.0064 μM, 0.0011 μM and 0.0002 μM. 0.5% DMSO was in each well finally. • 6. Dilute 20 mM substrate Z-Lys-SBzl (Bachem, Cat #M-1300) to 200 μM in assay buffer with 200 μM DTNB(Sigma, Catalog #D8130). • 7. Dilute 738 ng/μL Complement Factor D (R&D Systems, Catalog #1824-SE) to 6.25 ng/μL in assay buffer. Add 40 μl diluted Complement Factor D in the 96-well plate. • 8. Positive control well contains Complement Factor D without test compound. Negative control well contains neither Complement Factor D nor test compound. Using assay buffer, bring the total volume of all controls to 50 μl. • 9. Pre-incubate the plate for 5 min at room temperature. • 10. Add 50 μl of diluted substrate/DTNB mixture into each well. Mix the reagents completely by shaking the plate gently for 30 sec. • 11. For kinetic reading: Immediately start measuring absorbance (A405 nm) continuously and record data every 30sec for 60 min. • 12. Data analysis • Inhibition activity of compound was evaluated by IC50. IC50 was calculated according the dose-response curve of compound fitted using GraphPadPrism with “log(inhibitor)-response (variable slope)” equation. • % inhibition was calculated by using following equation:
# [formula] • Mean(NC): The average value of the negative control wells' A405 nm values. • Mean(PC): The average value of the positive control wells' A405 nm values.
# The ability of the compounds in Table 2 to inhibit human complement factor D inhibitory activity was determined.
# [1] = Complement Factor D (R&D Systems), substrate Z-Lys-SBzl, A405 nm, read-out: CFD IC50
# T1 sequence (P00746 26-253): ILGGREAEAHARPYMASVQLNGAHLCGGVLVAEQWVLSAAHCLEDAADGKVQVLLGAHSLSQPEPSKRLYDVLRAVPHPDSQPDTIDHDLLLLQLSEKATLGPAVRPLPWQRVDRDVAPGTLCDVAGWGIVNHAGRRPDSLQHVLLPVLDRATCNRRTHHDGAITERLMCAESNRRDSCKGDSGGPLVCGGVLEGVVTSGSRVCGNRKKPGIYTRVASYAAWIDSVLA
SMILES,IC50 [1] [µM],IC50 [µM]
"NC(=O)c1nn(CC(=O)N2CCCNCC2C(=O)NCc2cccc(Cl)c2F)c2ccccc12 (centres unmarked) [Example 33, 1-(2-(2-((3-chloro-2-fluorobenzyl)carbamoyl)-1,4-diazepan-1-yl)-2-oxoethyl)-1H-indazole-3-carboxamide]",> 10,
"NC(=O)c1nn(CC(=O)N2[C@@H]3CC[C@@H](C3)[C@H]2C(=O)NCc2cc(Cl)ccc2Cl)c2ccccc12 [Example 69, 1-(2-((1R,3S,4S)-3-((2,5-dichlorobenzyl)carbamoyl)-2-azabicyclo[2.2.1]heptan-2-yl)-2-oxoethyl)-1H-indazole-3-carboxamide]",1 to 10,
"CC(=O)N1CCN(C(=O)Cn2nc(C(N)=O)c3ccccc32)[C@H](C(=O)Nc2cccc(C(F)(F)F)n2)C1 [Example 30, (S)-1-(2-(4-acetyl-2-((6-(trifluoromethyl)pyridin-2-yl)carbamoyl)piperazin-1-yl)-2-oxoethyl)-1H-indazole-3-carboxamide]",,1 to 10
"NC(=O)c1nn(CC(=O)N2[C@@H]3CC[C@@H](C3)[C@H]2C(=O)NCc2cccc(Cl)n2)c2ccccc12 [Example 52, 1-(2-((1R,3S,4S)-3-(((6-chloropyridin-2-yl)methyl)carbamoyl)-2-azabicyclo[2.2.1]heptan-2-yl)-2-oxoethyl)-1H-indazole-3-carboxamide]",> 10,
"NC(=O)c1nn(CC(=O)N2[C@@H]3CC[C@@H](C3)[C@H]2C(=O)Nc2cccc(C3CC3)n2)c2cnccc12 [Example 4, 1-(2-((1R,3S,4S)-3-((6-cyclopropylpyridin-2-yl)carbamoyl)-2-azabicyclo[2.2.1]heptan-2-yl)-2-oxoethyl)-1H-pyrazolo[3,4-c]pyridine-3-carboxamide]",1 to 10,
"NC(=O)c1nn(CC(=O)N2[C@H]3CC[C@H](C3)[C@@H]2C(=O)Nc2cccc(Cl)n2)c2ccccc12 [Example 19, 1-(2-((1S,3R,4R)-3-((6-chloropyridin-2-yl)carbamoyl)-2-azabicyclo[2.2.1]heptan-2-yl)-2-oxoethyl)-1H-indazole-3-carboxamide]",0.1 to 1,
"COc1ccc2c(c1)c(C(N)=O)nn2CC(=O)N1[C@@H]2CC[C@@H](C2)[C@H]1C(=O)Nc1cccc(Cl)n1 [Example 74, 1-(2-((1R,3S,4S)-3-((6-chloropyridin-2-yl)carbamoyl)-2-azabicyclo[2.2.1]heptan-2-yl)-2-oxoethyl)-5-methoxy-1H-indazole-3-carboxamide]",1 to 10,
"NC(=O)c1nn(CC(=O)N2[C@H]3CC[C@H](C3)[C@H]2C(=O)Nc2cccc(Cl)n2)c2ccc(Cl)cc12 [Example 16, 5-chloro-1-(2-((1S,3S,4R)-3-((6-chloropyridin-2-yl)carbamoyl)-2-azabicyclo[2.2.1]heptan-2-yl)-2-oxoethyl)-1H-indazole-3-carboxamide]",1 to 10,
"Cc1ccc2c(c1)c(C(N)=O)nn2CC(=O)N1[C@@H]2CC[C@@H](C2)[C@H]1C(=O)Nc1cccc(Cl)n1 [Example 61, 1-(2-((1R,3S,4S)-3-((6-chloropyridin-2-yl)carbamoyl)-2-azabicyclo[2.2.1]heptan-2-yl)-2-oxoethyl)-5-methyl-1H-indazole-3-carboxamide]",0.1 to 1,
"NC(=O)c1nn(CC(=O)N2[C@@H]3CC[C@@H](C3)[C@H]2C(=O)Nc2cccc(Cl)c2F)c2cnccc12 [Example 36, 1-(2-((1R,3S,4S)-3-((3-chloro-2-fluorophenyl)carbamoyl)-2-azabicyclo[2.2.1]heptan-2-yl)-2-oxoethyl)-1H-pyrazolo[3,4-c]pyridine-3-carboxamide]",1 to 10,
"NC(=O)Cc1nn(CC(=O)N2[C@@H]3CC[C@@H](C3)[C@H]2C(=O)Nc2cccc(Cl)n2)c2ccccc12 [Example 94, (1R,3S,4S)-2-(2-(3-(2-amino-2-oxoethyl)-1H-indazol-1-yl)acetyl)-N-(6-chloropyridin-2-yl)-2-azabicyclo[2.2.1]heptane-3-carboxamide]",1 to 10,
"NC(=O)c1nn(CC(=O)N2[C@@H]3CC[C@@H](C3)[C@H]2C(=O)Nc2cccc(C(F)(F)F)n2)c2ccccc12 [Example 8, 1-(2-oxo-2-((1R,3S,4S)-3-((6-(trifluoromethyl)pyridin-2-yl)carbamoyl)-2-azabicyclo[2.2.1]heptan-2-yl)ethyl)-1H-indazole-3-carboxamide]",1 to 10,
"NC(=O)c1nn(CC(=O)N2[C@@H]3CC[C@@H](C3)[C@H]2C(=O)Nc2cc(C(F)(F)F)ccn2)c2ccccc12 [Example 55, 1-(2-oxo-2-((1R,3S,4S)-3-((4-(trifluoromethyl)pyridin-2-yl)carbamoyl)-2-azabicyclo[2.2.1]heptan-2-yl)ethyl)-1H-indazole-3-carboxamide]",> 10,

# Now from value to compound, other results behind:
IC50 [1] [µM],SMILES,IC50 [µM]
0.1 to 1,"NC(=O)c1nn(CC(=O)N2[C@H](C(=O)Nc3cccc(Cl)c3F)C[C@@H]3CCC[C@@H]32)c2ccccc12 [Example 158, 1-(2-((2S,3aS,6aS)-2-((3-chloro-2-fluorophenyl)carbamoyl)hexahydrocyclopenta[b]pyrrol-1(2H)-yl)-2-oxoethyl)-1H-indazole-3-carboxamide]",
0.1 to 1,"Cc1ccc2c(c1)c(C(N)=O)nn2CC(=O)N1[C@H](C(=O)NCc2cccc(Cl)c2F)C[C@@H]2CCC[C@@H]21 [Example 165, 1-(2-((2S,3aS,6aS)-2-((3-chloro-2-fluorobenzyl)carbamoyl)hexahydrocyclopenta[b]pyrrol-1(2H)-yl)-2-oxoethyl)-5-methyl-1H-indazole-3-carboxamide]",
1 to 10,"COC(=O)c1cc(Cl)c(F)c(CNC(=O)[C@@H]2[C@H]3CC[C@H](C3)N2C(=O)Cn2nc(C(N)=O)c3ccccc32)c1 [Example 110, methyl 3-(((1R,3S,4S)-2-(2-(3-carbamoyl-1H-indazol-1-yl)acetyl)-2-azabicyclo[2.2.1]heptane-3-carboxamido)methyl)-5-chloro-4-fluorobenzoate]",
> 10,"CC(C)=C(F)C(C)NC(=O)[C@@H]1[C@H]2CC[C@H](C2)N1C(=O)Cn1nc(C(N)=O)c2ccccc21 (stereo partly drawn) [Example 135, 1-(2-((1R,3S,4S)-3-((3-fluoro-4-methylpent-3-en-2-yl)carbamoyl)-2-azabicyclo[2.2.1]heptan-2-yl)-2-oxoethyl)-1H-indazole-3-carboxamide]",
1 to 10,"NC(=O)c1nn(CC(=O)N2CC[C@H]2C(=O)NCc2cccc(Cl)c2F)cc1Br [Example 187, (S)-4-bromo-1-(2-(2-((3-chloro-2-fluorobenzyl)carbamoyl)azetidin-1-yl)-2-oxoethyl)-1H-pyrazole-3-carboxamide]",
0.1 to 1,"NC(=O)c1nn(CC(=O)N2[C@@H]3CC[C@@H](C3)[C@H]2C(=O)NCc2cc(C(=O)O)cc(Cl)c2F)c2ccccc12 [Example 111, 3-(((1R,3S,4S)-2-(2-(3-carbamoyl-1H-indazol-1-yl)acetyl)-2-azabicyclo[2.2.1]heptane-3-carboxamido)methyl)-5-chloro-4-fluorobenzoic acid]",
0.1 to 1,"N#Cc1ccc(Cl)nc1NC(=O)[C@@H]1[C@H]2CC[C@H](C2)N1C(=O)Cn1nc(C(N)=O)c2ccccc21 [Example 101, 1-(2-((1R,3S,4S)-3-((6-chloro-3-cyanopyridin-2-yl)carbamoyl)-2-azabicyclo[2.2.1]heptan-2-yl)-2-oxoethyl)-1H-indazole-3-carboxamide]",
